Holding throughout (format): functional, cell-based
In one assay the test system is MCF7. Put plainly: Antiproliferative activity against human MCF7 cells assessed as inhibition of cell growth by SRB assay. A general note: In SRB staining, fixed cells bind dye roughly in proportion to their protein.
The subject of a further assay is ECa-109 cell line. The experiment in a line: Antiproliferative activity against human EC109 cells assessed as inhibition of cell growth by SRB assay.
The next assay relates to MGC-803. Put plainly: Antiproliferative activity against human MGC-803 cells assessed as inhibition of cell growth by SRB assay.
Another assay relates to HeLa. Put plainly: Antiproliferative activity against human HeLa cells assessed as inhibition of cell growth by SRB assay.

Structures are written as SMILES.

As a reminder, the IC50 is the concentration that gives 50% inhibition. For the molecule `O=C1C(Nc2ccc(I)cc2)=CC(=O)c2c1nc1n2[C@H]2OC[C@@H](O)[C@H]2OC1`, the half-inhibitory concentration (IC50) with MCF7 is 3.89 µM; in the assay with ECa-109 cell line it was 2.53 µM; with MGC-803 it was 2.15 µM; in the assay with HeLa, 4.01 µM.

As for `O=C1C(Nc2ccc(Br)cc2)=CC(=O)c2c1nc1n2[C@H]2OC[C@@H](O)[C@H]2OC1`, the IC50 with MCF7 is 4.33 µM; with ECa-109 cell line it was 1.98 µM; in the assay on MGC-803, 2.02 µM; in the assay on HeLa it was 5.22 µM.

`O=C1C=C(Nc2cccc(F)c2)C(=O)c2c1nc1n2[C@H]2OC[C@@H](O)[C@H]2OC1`: the half-maximal inhibitory concentration (IC50) is 5.5 µM in the assay with MCF7, 7.03 µM in the assay with ECa-109 cell line, 2.18 µM in the assay on MGC-803 and 6.44 µM in the assay on HeLa.

`O=C1C(NC2CC2)=CC(=O)c2c1nc1n2C[C@@H]([C@H](O)CO)OC1`: the half-maximal inhibitory concentration (IC50) with MCF7, in the assay with ECa-109 cell line, with MGC-803 and in the assay with HeLa was > 16 µM throughout.

Turning to `Cc1ccc(NC2=CC(=O)c3nc4n(c3C2=O)[C@H]2OC[C@@H](O)[C@H]2OC4)cc1`, the IC50 in the assay with MCF7 came out at 1.66 µM; in the assay with ECa-109 cell line it was 3.48 µM; in the assay on MGC-803, 1.42 µM; with HeLa, 3.86 µM.

Regarding `CCCc1ccc(NC2=CC(=O)c3nc4n(c3C2=O)C[C@@H]([C@H](O)CO)OC4)cc1`, the IC50 in the assay on MCF7 was found to be 5.94 µM; in the assay with ECa-109 cell line, 6.88 µM; in the assay with MGC-803, 3.67 µM; in the assay on HeLa, 3.29 µM.

Regarding `Cc1ccc(NC2=CC(=O)c3c(nc4n3[C@H]3OC[C@@H](O)[C@H]3OC4)C2=O)cc1`, the IC50 was > 4 µM in the assay with MCF7, > 4 µM in the assay on ECa-109 cell line, 1.55 µM with MGC-803 and 6.59 µM with HeLa.

With `COc1cccc(NC2=CC(=O)c3c(nc4n3C[C@@H]([C@H](O)CO)OC4)C2=O)c1`, the IC50 with MCF7 is 6.61 µM; with ECa-109 cell line, 6.95 µM; in the assay with MGC-803 it was 3.58 µM; with HeLa, 6.14 µM.

In the case of `COc1ccccc1NC1=CC(=O)c2nc3n(c2C1=O)[C@H]1OC[C@@H](O)[C@H]1OC3`, the IC50 is > 4 µM in the assay on MCF7, > 4 µM in the assay on ECa-109 cell line, 1.63 µM in the assay with MGC-803 and 2.95 µM in the assay on HeLa.

`O=C1C(NCc2ccccc2)=CC(=O)c2c1nc1n2[C@H]2OC[C@@H](O)[C@H]2OC1`: the IC50 in the assay on MCF7 is > 8 µM; with ECa-109 cell line it was > 8 µM; in the assay with MGC-803, 3.49 µM; in the assay on HeLa, 11 µM.

Turning to `CCOc1ccccc1NC1=CC(=O)c2c(nc3n2[C@H]2OC[C@@H](O)[C@H]2OC3)C1=O`, the IC50 in the assay on MCF7 was > 4 µM; in the assay with ECa-109 cell line it was 4.32 µM; in the assay with MGC-803, 2.83 µM; with HeLa, 8.3 µM.

For `CCCc1ccc(NC2=CC(=O)c3nc4n(c3C2=O)[C@H]2OC[C@@H](O)[C@H]2OC4)cc1`, the IC50 is 4.66 µM in the assay on MCF7, > 4 µM with ECa-109 cell line, 1.56 µM in the assay with MGC-803 and 4.99 µM in the assay on HeLa.

Take `O=C1C=C(Nc2cccc(Cl)c2)C(=O)c2c1nc1n2[C@H]2OC[C@@H](O)[C@H]2OC1`: the IC50 in the assay on MCF7 was found to be 4.72 µM; in the assay on ECa-109 cell line, 4.69 µM; in the assay with MGC-803, 1.77 µM; in the assay with HeLa it was 6.04 µM.

As for `O=C1C(N2CCCCC2)=CC(=O)c2c1nc1n2[C@H]2OC[C@@H](O)[C@H]2OC1`, the IC50 was > 8 µM in the assay on MCF7, > 8 µM with ECa-109 cell line, > 4 µM with MGC-803 and > 16 µM in the assay with HeLa.

With `O=C1C(Nc2ccc(I)cc2)=CC(=O)c2c1nc1n2C[C@@H]([C@H](O)CO)OC1`, the IC50 with MCF7 was 5.11 µM; in the assay with ECa-109 cell line it was 3.14 µM; with MGC-803, 2.46 µM; in the assay with HeLa it was 5.51 µM.

Consider `O=C1C(Nc2ccc(Br)cc2)=CC(=O)c2c1nc1n2C[C@@H]([C@H](O)CO)OC1`, for which the 50% inhibitory concentration (IC50) in the assay on MCF7 was determined as 5.01 µM; with ECa-109 cell line, 3.56 µM; with MGC-803, 2.78 µM; in the assay with HeLa, 7.89 µM.

On to `COc1ccccc1NC1=CC(=O)c2nc3n(c2C1=O)C[C@@H]([C@H](O)CO)OC3`, for which the IC50 in the assay on MCF7 was > 16 µM; in the assay on ECa-109 cell line it was > 16 µM; in the assay with MGC-803, 6.61 µM; in the assay with HeLa, 6.42 µM.

As to `O=C1C(NC2CCCC2)=CC(=O)c2c1nc1n2[C@H]2OC[C@@H](O)[C@H]2OC1`, the IC50 in the assay on MCF7, with ECa-109 cell line, with MGC-803 and with HeLa was > 16 µM in each case.

Turning to `COc1cccc(NC2=CC(=O)c3c(nc4n3[C@H]3OC[C@@H](O)[C@H]3OC4)C2=O)c1`, the IC50 was 3.83 µM in the assay on MCF7, 3.34 µM with ECa-109 cell line, 1.79 µM in the assay on MGC-803 and > 8 µM in the assay with HeLa.

Turning to `Cc1ccc(NC2=CC(=O)c3nc4n(c3C2=O)C[C@@H]([C@H](O)CO)OC4)cc1`, the IC50 in the assay with MCF7 was 10.6 µM; in the assay on ECa-109 cell line, 7.98 µM; in the assay on MGC-803 it was 4.82 µM; with HeLa it was 3.9 µM.

For the molecule `O=C1C=C(Nc2ccc(C(F)(F)F)cc2)C(=O)c2c1nc1n2C[C@@H]([C@H](O)CO)OC1`, the IC50 in the assay with MCF7 was determined as 11.3 µM; in the assay with ECa-109 cell line it was 6.73 µM; in the assay on MGC-803, 6.52 µM; with HeLa it was 6.09 µM.

Consider `O=C1C(Nc2ccccc2)=CC(=O)c2c1nc1n2[C@H]2OC[C@@H](O)[C@H]2OC1`, for which the IC50 in the assay with MCF7 was > 4 µM; in the assay with ECa-109 cell line it was 3.56 µM; in the assay with MGC-803 it was 1.83 µM; in the assay on HeLa, > 8 µM.

Regarding `COc1ccc(NC2=CC(=O)c3c(nc4n3[C@H]3OC[C@@H](O)[C@H]3OC4)C2=O)cc1`, the IC50 is 4.47 µM in the assay on MCF7, 3.41 µM with ECa-109 cell line, 2.15 µM with MGC-803 and > 8 µM in the assay with HeLa.

Turning to `O=C1C=C(Nc2ccc(I)cc2)C(=O)c2c1nc1n2[C@H]2OC[C@@H](O)[C@H]2OC1`, the IC50 with MCF7 worked out at 2.23 µM; in the assay on ECa-109 cell line it was 2.3 µM; in the assay with MGC-803, 1.4 µM; in the assay on HeLa, 4.07 µM.

Take `O=C1C(Nc2ccc(C(F)(F)F)cc2)=CC(=O)c2c1nc1n2C[C@@H]([C@H](O)CO)OC1`: the half-inhibitory concentration (IC50) in the assay with MCF7 amounted to 4.28 µM; in the assay on ECa-109 cell line, 4.03 µM; in the assay on MGC-803, 2.02 µM; in the assay on HeLa, 7.18 µM.

Regarding `CCOc1ccc(NC2=CC(=O)c3nc4n(c3C2=O)C[C@@H]([C@H](O)CO)OC4)cc1`, the IC50 in the assay on MCF7 was determined as 11.3 µM; in the assay with ECa-109 cell line, 9.88 µM; with MGC-803, 4.31 µM; with HeLa it was 4.12 µM.

Consider `O=C1C=C(Nc2ccc(C(F)(F)F)cc2)C(=O)c2c1nc1n2[C@H]2OC[C@@H](O)[C@H]2OC1`, for which the IC50 is > 4 µM in the assay on MCF7, 5.5 µM with ECa-109 cell line, 2.82 µM in the assay on MGC-803 and > 8 µM in the assay on HeLa.

Take `CCCc1ccc(NC2=CC(=O)c3c(nc4n3[C@H]3OC[C@@H](O)[C@H]3OC4)C2=O)cc1`: the concentration for half-maximal inhibition (IC50) was > 4 µM in the assay on MCF7, > 4 µM with ECa-109 cell line, 1.92 µM with MGC-803 and 6.03 µM in the assay on HeLa.

As for `O=C1C(Nc2cccc(Cl)c2)=CC(=O)c2c1nc1n2C[C@@H]([C@H](O)CO)OC1`, the IC50 came out at 5.77 µM with MCF7, 5.99 µM with ECa-109 cell line, 2.89 µM in the assay with MGC-803 and 13.8 µM with HeLa.

For the origin of these results see ChEMBL document CHEMBL5113408, “Design, synthesis and antitumour activity of novel 5(6)-amino-benzimidazolequinones containing a fused morpholine” (Eur J Med Chem, 2022).
